pIC50: −log10 of the molar value. Each block holds one compound with its values, some of them ahead of it.
What was measured:
[1] = tested on: HCT-116; experiment: Growth inhibition of human HCT-116 cells measured for 48 hrs by SRB assay; type: functional
[2] = tested on: HCT-116; experiment: Growth inhibition of human HCT-116 cells; type: functional
[3] = tested on: HCT-116; experiment: Cytotoxicity against human HCT-116 cells assessed as reduction in cell viability incubated for 72 hrs by MTS assay; type: functional, cell-based; settings: HCT-116, 72 h
[4] = tested on: JIMT-1; experiment: Antiproliferative activity against human JIMT-1 cells assessed as reduction in cell viability incubated for 72 hrs by MTS assay; type: functional, cell-based; settings: JIMT-1, 72 h
[5] = tested on: A2780; experiment: Cytotoxicity against human A2780 cells assessed as reduction in cell viability incubated for 72 hrs by MTS assay; type: functional, cell-based; settings: A2780, 72 h
[6] = tested on: K562; experiment: Cytotoxicity against human K562 cells assessed as reduction in cell viability incubated for 72 hrs by MTS assay; type: functional, cell-based; settings: K562, 72 h
[7] = tested on: A2780cisR; experiment: Antiproliferative activity against human cisplatin-resistant A2780 cells assessed as reduction in cell viability incubated for 72 hrs by MTS assay; type: functional, cell-based
[8] = tested on: MIA PaCa-2; experiment: Cytotoxicity against human MIA PaCa-2 cells assessed as reduction in cell viability incubated for 72 hrs by MTS assay; type: functional, cell-based; settings: MIA PaCa-2, 72 h
[9] = tested on: HeLa; experiment: Cytotoxicity against human HeLa cells assessed as reduction in cell growth incubated for 72 hrs by MTT assay; type: functional, cell-based
[10] = tested on: HepG2; experiment: Antiproliferative activity against human HepG2 cells assessed as reduction in cell growth; type: functional, cell-based
[11] = tested on: HepG2; experiment: Antiproliferative activity against human HepG2 cells assessed as inhibition of cell growth relative to control; type: functional; design: scale not given: the % may be the effect or the level left
[12] = tested on: HL-60; experiment: Cytotoxicity against human HL-60 cells assessed as reduction in cell viability incubated for 48 hrs by MTT assay; type: functional, cell-based; settings: HL-60, 48 h
[13] = tested on: HeLa; experiment: Antiproliferative activity against human HeLa cells assessed as reduction in cell viability by MTT assay; type: functional, cell-based
[14] = tested on: HeLa; experiment: Cytotoxicity against human HeLa cells assessed as reduction in cell viability after 72 hrs by MTS assay; type: functional, cell-based
[15] = tested on: HepG2; experiment: Cytotoxicity against human HepG2 cells; type: functional, cell-based
[16] = tested on: HeLa; experiment: Antiproliferative activity against human HeLa cells assessed cell growth reduction incubated for 48 hrs by MTT assay; type: functional, cell-based
[17] = tested on: HepG2; experiment: Anticancer activity against human HepG2 cells assessed as reduction in cell viability; type: functional, cell-based
[18] = tested on: SW480; experiment: Cytotoxicity against human SW480 cells assessed as reduction in cell viability incubated for 72 hrs by celltiter glo assay; type: functional, cell-based; settings: SW480, 72 h

- GI50 [1]: 6000 nM
Compound: COc1ccc(Cc2cc(OC)c(OC)c(OC)c2)cc1O

- GI50 [2]: 29 nM
Compound: COc1cc(C(C)c2ccc3c(ccn3C)c2)cc(OC)c1OC (stereo not drawn)

- GI50 [2]: 30 nM
- GI50 [1]: 30 nM
Compound: COc1ccc(C(c2cc(OC)c(OC)c(OC)c2)C(F)F)cc1O (stereo not drawn)

Compound: CN(c1ccc2c(ccn2C)c1)c1cc(C(F)(F)F)nc2ccccc12
- pIC50 [3]: 8.52

- pIC50 [7]: 9.62
Compound: Cc1cc(N(C)c2ccc3c(c2)c2ccccc2n3C)c2ccccc2n1
- pIC50 [4]: 9.55
- pIC50 [5]: 9.55
- pIC50 [6]: 9.55
- pIC50 [8]: 9.55

Compound: CN(c1ccc2c(c1)c1ccccc1n2C)c1cc(Cl)nc2ccccc12
- pIC50 [3]: 7.80

Compound: COc1ccc(N(C)c2cc(C)nc3ccccc23)nc1N
- pIC50 [3]: 9.00

Compound: CN(c1ccc2c(c1)c1ccccc1n2C)c1nc(Cl)nc2ccccc12
- pIC50 [3]: 9.00

Compound: Cc1nc(N(C)c2ccc3c(c2)c2ccccc2n3C)c2ccccc2n1
- pIC50 [3]: 8.70

Compound: COc1cccc2c(N(C)c3ccc4c(c3)c3ccccc3n4C)cc(C)nc12
- pIC50 [3]: 7.68

- pIC50 [7]: 9.55
Compound: Cc1cc(N(C)c2ccc3c(n2)OCCO3)c2ccccc2n1
- pIC50 [3]: 7.70

Compound: COc1cc(CCc2ccc(OC(F)F)c(OP(=O)(O)O)c2)cc(OC)c1OC
- pIC50 [9]: 6.96

- GI50 [2]: 60 nM
Compound: COc1ccc(C(C)c2cc(OC)c(OC)c(OC)c2)nc1 (stereo not drawn)

- pIC50 [10]: 7.14
Compound: COc1cc(CCc2ccc(OCCF)c(O)c2)cc(OC)c1OC
- Activity [11]: 80.94%

- pIC50 [10]: < 6.30
Compound: COc1cc(CCc2ccc(OC(=O)CCn3cc(F)c(=O)[nH]c3=O)c(O)c2)cc(OC)c1OC

Compound: COc1ccc(CCc2cc(OC)c(OC)c(OC)c2)cc1OC(=O)CCC(=O)Oc1cc(CCc2cc(OC)c(OC)c(OC)c2)ccc1OC
- pIC50 [12]: 7.09

- GI50 [1]: 6000 nM
Compound: CCOc1cc(C(C)c2ccc(OC)c(N)c2)ccc1OC (stereo not drawn)

- pIC50 [13]: 6.80
Compound: COc1ccc(CCc2cc(OC)c(OC)c(OC)c2)cc1N

Compound: COc1ccc(CCc2cc(OC)c(OC)c(OC)c2)cc1OC(=O)CCCCCNC(=O)CCCC[C@@H]1SC[C@@H]2NC(=O)N[C@@H]21
- pIC50 [14]: 7.59

Compound: COc1ccc(CCc2cc(OC)c(OC)c(OC)c2)cc1OC(=O)c1cncc(Cl)c1
- pIC50 [15]: 7.49

- pIC50 [16]: 7.30
Compound: COc1cc(CCc2ccc(C(C)(F)F)cc2NC(=O)CN)cc(OC)c1OC

- GI50 [2]: 100 nM
Compound: COc1ccc(C(C)c2cc(C)c(OC)c(OC)c2)cc1OP(=O)(O)O (stereo not drawn)

- pIC50 [17]: < 6.30
Compound: COc1ccc(CCc2cc(OC)c(OC)c(OC)c2)cc1OC(=O)c1c[nH]c2ccccc12

Compound: COc1cc(CCc2ccc(OC(F)F)c(O)c2)cc(OC)c1OC
- pIC50 [18]: 6.74

- pIC50 [17]: < 6.30
Compound: COc1ccc(CCc2cc(OC)c(OC)c(OC)c2)cc1OC(=O)c1ccsc1

- GI50 [1]: 300 nM
Compound: COc1cc(OC)cc(C(C)c2ccc(OC)c(N)c2)c1 (stereo not drawn)

Compound: COc1ccc(CCc2cc(OC)c(OC)c(OC)c2)cc1OC(=O)CCC(=O)O
- pIC50 [12]: 7.32

- pIC50 [17]: < 6.30
Compound: COc1ccc(CCc2cc(OC)c(OC)c(OC)c2)cc1OC(=O)c1cncnc1

- pIC50 [13]: 6.70
Compound: CCOc1ccc(CCc2cc(OC)c(OC)c(OC)c2)cc1N

- pIC50 [13]: 6.96
Compound: CCOc1ccc(CCc2cc(OC)c(OC)c(OC)c2)cc1O

- pIC50 [17]: < 6.30
Compound: COc1ccc(CCc2cc(OC)c(OC)c(OC)c2)cc1OC(=O)c1cnc(C)nc1

- pIC50 [16]: 6.34
Compound: COc1cc(CCc2ccc(OC(C)(F)F)cc2N)cc(OC)c1OC

- pIC50 [17]: < 6.30
Compound: COc1ccc(CCc2cc(OC)c(OC)c(OC)c2)cc1OC(=O)c1cccnc1

Compound: CN(c1ccc2c(ccn2C)n1)c1nc(Cl)nc2ccccc12
- pIC50 [4]: 9.62
- pIC50 [5]: 9.62
- pIC50 [6]: 9.62
- pIC50 [8]: 9.62

Compound: COc1ccc(C(C)c2cc(OC)c(OC)c(OC)c2)cc1N (stereo not drawn)
- GI50 [2]: 60 nM
- GI50 [1]: 28 nM

- GI50 [2]: 50 nM
- GI50 [1]: 50 nM
Compound: COc1ccc(C(CC#N)c2cc(OC)c(OC)c(OC)c2)cc1O (stereo not drawn)

- pIC50 [17]: < 6.30
Compound: COc1ccc(CCc2cc(OC)c(OC)c(OC)c2)cc1OC(=O)c1cscn1

- pIC50 [16]: 6.89
Compound: COc1cc(CCc2ccc(OC(C)(F)F)cc2[N+](=O)[O-])cc(OC)c1OC

- pIC50 [16]: 6.96
Compound: COc1cc(CCc2ccc(OC(C)(F)F)cc2)cc(OC)c1OC

- pIC50 [10]: < 5.70
Compound: CCCOc1ccc(CCc2cc(OC)c(OC)c(OC)c2)cc1O

Compound: COc1cc(CCc2ccc(OC(F)F)c(NC(=O)CN)c2)cc(OC)c1OC
- pIC50 [9]: 7.15

- pIC50 [17]: < 6.30
Compound: COc1ccc(CCc2cc(OC)c(OC)c(OC)c2)cc1OC(=O)c1ccoc1

- pIC50 [17]: < 6.30
Compound: COc1ccc(CCc2cc(OC)c(OC)c(OC)c2)cc1OC(=O)c1ccnnc1

Compound: COc1ccc(CCc2cc(OC)c(OC)c(OC)c2)cc1OC(=O)c1cncc(Br)c1
- pIC50 [15]: 7.87

Compound: COc1ccc(CCc2cc(OC)c(OC)c(OC)c2)cc1OC(=O)CCCC[C@H]1SC[C@H]2NC(=O)N[C@H]21
- pIC50 [14]: 6.31

Compound: COc1ccc(/C=C\c2cc(OC)c(OC)c(OC)c2)cc1O [COMBRETASTATIN A4]
- pIC50 [18]: 6.57
